Results as given in US20200246316A1, “METHODS OF TREATING POST-SURGICAL PAIN WITH A THIAZOLINE ANTI-HYPERALGESIC AGENT” (CERSCI THERAPEUTICS, INC., priority 2019, published 2020).
Values joined by “and” are separate entries in the source; they are usually repeats but may differ in a detail not shown here. Identical values can stand only once. “Also recorded” adds a separate entry of the source. Counter-ions that a name gives are not always drawn. Like-named read-outs stand apart in the source and are kept apart here.

Columns and labels:
[1] = Cytotoxicity by lactate dehydrogenase (LDH) release; assay type: cell-based; conditions: dog, MDCKII control cells, read-out: percent cytotoxicity (LDH release)
[2] = Stability in plasma from a variety of species; assay type: in vitro ADME
Description: Further metabolism work in additional species will be undertaken.

[3] = system: mouse model of severe incision; test: Mouse model of severe incision; assay type: in vivo; conditions: 10 mg/kg IP daily for 15 days; Days 1, 3, 6, 8, 10, 13, 15 and 21 after incision; FIG. 13; mono-hydrochloride
Description: Two incisional pain models were used to assess Compound 1 effects on hyperalgesia. The first model is referred to as the Brennan model in which, under anesthesia, a 1 cm longitudinal incision to the skin and underlying fascia of a rat hindpaw is made. The second is a variation but is a more invasive procedure in which the skin and muscle are spread apart using forceps which creates a longer-lasting hypersensitivity.
In a mouse model of severe incision (tissue and muscle spread with forceps), animals were at baseline for mechanical thresholds prior to incision and then given a daily dose of Compound 1 (10 mg/kg IP) or vehicle for 15 days.

[4] = Stability in plasma; assay type: in vitro ADME
Description: Upon administration, Compound 1 is stable in both plasma and hepatocytes from rat, dog and human.

[5] = Dog pharmacokinetics after single PO (10 mg/kg) and IV (3 mg/kg) dose; assay type: in vivo; conditions: for bioavailability: 10 mg/kg PO vs 3 mg/kg IV
Protocol: The objective of the first single dose non-GLP study in dogs was to determine the pharmacokinetics and bioavailability of Compound 1 after a single oral (gavage) or single intravenous (IV) dose in dogs. The test article formulation was administered to three male dogs orally via gavage at a dose level of 10 mg/kg (dosing volume of 2 mL/kg body weight). Following a wash-out period of a minimum of three days, the same three dogs were administered the test article formulation via an IV bolus push over approximately 1-2 minutes at a dose level of 3 mg/kg (dosing volume of 0.5 mL/kg). The vehicle for oral gavage dosing was 0.5% HPMC; the vehicle for IV injection was sterile phosphate buffered saline (PBS; pH 7.4). […] Animals were returned to quarantine after the last blood collection.
After IV administration at 3 mg/kg, the test article was quantifiable up to the 4-hour time point for all animals and tmax was about 5 minutes. Since the test article was not quantifiable at the 6-hour and subsequent time points for IV administration, […] and bioavailability could not be calculated.

[6] = target: T1, P-gp (Homo sapiens, UniProt P08183); test: Inhibition of efflux (ABC) transporters; assay type: in vitro ADME
T1 construct: Caco-2 cells; endogenous in cells; host or cells: Caco-2 cells

[7] = in vivo; conditions: rat, po, 100 mg/kg; for concentration at 1 h: 1 h post-dose; for concentration at 2 h: 2 h post-dose; for concentration at 0.5 h: 0.5 h post-dose
Protocol: (§1) In both assays, a deuterated (Compound 1-d4) internal standard was used.
(§2) The objective of this non-GLP study was to determine the pharmacokinetics of Compound 1 after a single oral (gavage) dose in rats, and to determine if Compound 1 undergoes epimerization in the rat. Compound 1 was administered to CD® IGS [Crl:CD(SD)] (Sprague Dawley) rats (5/sex/group) as a single oral gavage dose of 100 mg/kg in a vehicle of 0.5% aqueous HPMC. Rats were dosed at a dose volume of 10 mL/kg body weight.

[8] = Rat pharmacokinetics after single PO dose; conditions: for Compound 1 Concentration in rat plasma: 100 mg/kg single PO, individual animals
Protocol: as §1, §2

[9] = system: peroxynitrite; test: Models of protein nitration; assay type: biochemical; conditions: physiological conditions (neutral pH)
Description: In cell-based assays of PN-mediated cytotoxicity, Compound 1 is protective. […] Chemically, Compound 1 can also react stoichiometrically with peroxynitrite to form a para-nitro adduct. Without being bound by theory, by targeting and removing peroxynitrite and peroxide, Compound 1 can disrupt the ensuing cascades that lead to hypersensitivity (protein modification, ion channel hyperexcitation) thus providing a long duration event in terms of pain relief.

[10] = pKa values; assay type: physicochemical
[11] = target: T2, OCT (Homo sapiens, UniProt O15245); test: Inhibition of uptake (SLC) transporters; assay type: in vitro ADME; conditions: OCT1; HEK293 cells, probe [14C]-tetraethylammonium bromide (5 μM), 0.3-600 μM tested
T2 construct: expressed in transfected cells; host or cells: HEK293 cells

[12] = target: T3, MATE (Homo sapiens, UniProt Q86VL8); test: Inhibition of uptake (SLC) transporters; assay type: in vitro ADME; conditions: MATE2-K; HEK293 cells, probe [14C]-metformin (10 μM), pH 8.5, 0.3-600 μM tested
T3 construct: expressed in transfected cells; host or cells: HEK293 cells

[13] = target: T4, MATE (Homo sapiens, UniProt Q96FL8); test: Inhibition of uptake (SLC) transporters; assay type: in vitro ADME; conditions: MATE1; HEK293 cells, probe [14C]-metformin (10 μM), pH 8.5, 0.3-600 μM tested
T4 construct: expressed in transfected cells; host or cells: HEK293 cells

[14] = target: T5, OATP1B3 (Homo sapiens, UniProt Q9NPD5); test: Inhibition of uptake (SLC) transporters; assay type: in vitro ADME
T5 construct: expressed in transfected cells; host or cells: HEK293 cells

[15] = female, Sprague Dawley, Compound 1 Concentration in rat plasma, 100 mg/kg single PO, individual animals
[16] = female, Sprague-Dawley (CD IGS, Crl:CD(SD))
[17] = male, Sprague Dawley, Compound 1 Concentration in rat plasma, 100 mg/kg single PO, individual animals
[18] = male, Sprague Dawley, Compound 1 Concentration in rat plasma, 100 mg/kg single PO, Average
[19] = male, Sprague-Dawley (CD IGS, Crl:CD(SD))
[20] = female, Sprague Dawley (CD IGS, Crl:CD(SD)), rat, plasma, po, 100 mg/kg
[21] = male, Sprague Dawley, rat, plasma, po, 100 mg/kg

T5 sequence (Q9NPD5 whole entry): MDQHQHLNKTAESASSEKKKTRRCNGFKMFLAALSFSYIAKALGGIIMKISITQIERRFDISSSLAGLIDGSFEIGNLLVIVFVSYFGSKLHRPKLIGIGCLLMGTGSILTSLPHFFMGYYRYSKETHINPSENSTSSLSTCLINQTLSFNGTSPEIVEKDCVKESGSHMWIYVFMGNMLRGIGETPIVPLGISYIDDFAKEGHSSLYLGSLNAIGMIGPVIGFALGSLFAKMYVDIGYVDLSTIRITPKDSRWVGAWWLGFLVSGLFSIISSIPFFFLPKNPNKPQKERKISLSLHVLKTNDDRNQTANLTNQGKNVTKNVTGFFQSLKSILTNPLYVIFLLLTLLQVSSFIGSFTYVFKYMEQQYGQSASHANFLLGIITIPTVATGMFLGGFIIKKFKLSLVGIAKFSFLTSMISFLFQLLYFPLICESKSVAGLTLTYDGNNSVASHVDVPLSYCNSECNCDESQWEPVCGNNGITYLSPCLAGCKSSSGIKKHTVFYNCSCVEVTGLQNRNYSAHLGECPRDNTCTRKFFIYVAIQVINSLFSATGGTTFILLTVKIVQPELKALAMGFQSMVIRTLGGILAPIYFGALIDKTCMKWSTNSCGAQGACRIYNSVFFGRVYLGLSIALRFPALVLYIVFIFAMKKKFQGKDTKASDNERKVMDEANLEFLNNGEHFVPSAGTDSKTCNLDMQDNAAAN
T1 sequence (P08183 whole entry): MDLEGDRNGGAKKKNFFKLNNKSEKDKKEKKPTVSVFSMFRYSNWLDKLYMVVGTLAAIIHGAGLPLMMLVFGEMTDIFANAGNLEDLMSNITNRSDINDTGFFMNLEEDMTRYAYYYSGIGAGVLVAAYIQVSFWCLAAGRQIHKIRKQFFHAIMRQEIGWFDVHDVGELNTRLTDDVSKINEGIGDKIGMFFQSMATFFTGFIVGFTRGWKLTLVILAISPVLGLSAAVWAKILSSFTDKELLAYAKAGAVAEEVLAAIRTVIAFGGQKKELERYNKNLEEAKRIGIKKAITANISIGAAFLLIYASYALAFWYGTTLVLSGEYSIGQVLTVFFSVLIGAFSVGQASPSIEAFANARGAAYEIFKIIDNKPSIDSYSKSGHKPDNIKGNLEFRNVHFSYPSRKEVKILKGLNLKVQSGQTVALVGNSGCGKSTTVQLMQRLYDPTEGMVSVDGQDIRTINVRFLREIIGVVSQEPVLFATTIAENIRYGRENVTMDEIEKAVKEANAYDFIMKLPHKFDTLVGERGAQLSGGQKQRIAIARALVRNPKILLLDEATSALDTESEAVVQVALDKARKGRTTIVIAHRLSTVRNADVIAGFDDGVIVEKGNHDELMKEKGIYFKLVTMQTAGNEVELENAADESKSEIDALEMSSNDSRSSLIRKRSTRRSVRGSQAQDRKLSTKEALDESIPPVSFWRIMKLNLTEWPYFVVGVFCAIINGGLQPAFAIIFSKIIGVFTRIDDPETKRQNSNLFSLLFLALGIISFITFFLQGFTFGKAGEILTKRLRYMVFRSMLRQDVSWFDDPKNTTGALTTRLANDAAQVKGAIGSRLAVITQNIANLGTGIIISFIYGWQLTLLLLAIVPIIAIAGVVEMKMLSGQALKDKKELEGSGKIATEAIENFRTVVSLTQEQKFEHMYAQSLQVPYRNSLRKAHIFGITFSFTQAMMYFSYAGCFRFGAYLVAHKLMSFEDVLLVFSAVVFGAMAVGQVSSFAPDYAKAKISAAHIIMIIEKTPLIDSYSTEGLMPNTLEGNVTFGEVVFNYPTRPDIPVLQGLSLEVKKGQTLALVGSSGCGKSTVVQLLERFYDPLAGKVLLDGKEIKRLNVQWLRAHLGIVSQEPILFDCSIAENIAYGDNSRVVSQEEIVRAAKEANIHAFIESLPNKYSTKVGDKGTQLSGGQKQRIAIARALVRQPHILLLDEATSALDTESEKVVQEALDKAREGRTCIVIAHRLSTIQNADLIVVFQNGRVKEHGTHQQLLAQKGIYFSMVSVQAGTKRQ
T2 sequence (O15245 whole entry): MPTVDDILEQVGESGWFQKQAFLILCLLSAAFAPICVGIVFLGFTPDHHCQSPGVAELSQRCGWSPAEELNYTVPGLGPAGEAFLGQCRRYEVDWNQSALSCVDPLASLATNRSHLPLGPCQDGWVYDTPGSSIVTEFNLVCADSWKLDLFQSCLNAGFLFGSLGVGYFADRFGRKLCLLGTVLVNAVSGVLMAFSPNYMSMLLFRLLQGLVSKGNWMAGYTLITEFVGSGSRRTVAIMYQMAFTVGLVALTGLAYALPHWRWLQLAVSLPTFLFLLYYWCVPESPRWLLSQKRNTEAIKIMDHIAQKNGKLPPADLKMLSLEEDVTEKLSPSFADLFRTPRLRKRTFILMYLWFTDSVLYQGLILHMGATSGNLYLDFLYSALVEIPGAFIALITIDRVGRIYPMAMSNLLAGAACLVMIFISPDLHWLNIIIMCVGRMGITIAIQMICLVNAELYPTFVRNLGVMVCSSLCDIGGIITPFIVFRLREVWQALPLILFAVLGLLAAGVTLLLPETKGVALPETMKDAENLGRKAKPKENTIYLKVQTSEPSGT
T3 sequence (Q86VL8 1-566 isoform Q86VL8-3): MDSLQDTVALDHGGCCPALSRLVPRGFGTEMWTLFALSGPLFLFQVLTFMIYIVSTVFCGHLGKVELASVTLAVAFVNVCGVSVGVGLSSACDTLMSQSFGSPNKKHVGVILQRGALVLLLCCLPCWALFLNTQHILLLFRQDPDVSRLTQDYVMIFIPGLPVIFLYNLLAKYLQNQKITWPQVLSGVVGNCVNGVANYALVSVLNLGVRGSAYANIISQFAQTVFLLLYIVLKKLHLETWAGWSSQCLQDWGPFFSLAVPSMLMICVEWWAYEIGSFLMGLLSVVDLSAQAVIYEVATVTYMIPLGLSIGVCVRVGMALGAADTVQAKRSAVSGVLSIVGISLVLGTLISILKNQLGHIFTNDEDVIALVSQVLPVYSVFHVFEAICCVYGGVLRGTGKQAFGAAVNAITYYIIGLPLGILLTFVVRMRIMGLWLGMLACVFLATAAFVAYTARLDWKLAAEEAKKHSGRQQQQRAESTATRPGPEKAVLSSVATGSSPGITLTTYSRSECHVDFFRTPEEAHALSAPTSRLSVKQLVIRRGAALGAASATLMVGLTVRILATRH
T4 sequence (Q96FL8 whole entry): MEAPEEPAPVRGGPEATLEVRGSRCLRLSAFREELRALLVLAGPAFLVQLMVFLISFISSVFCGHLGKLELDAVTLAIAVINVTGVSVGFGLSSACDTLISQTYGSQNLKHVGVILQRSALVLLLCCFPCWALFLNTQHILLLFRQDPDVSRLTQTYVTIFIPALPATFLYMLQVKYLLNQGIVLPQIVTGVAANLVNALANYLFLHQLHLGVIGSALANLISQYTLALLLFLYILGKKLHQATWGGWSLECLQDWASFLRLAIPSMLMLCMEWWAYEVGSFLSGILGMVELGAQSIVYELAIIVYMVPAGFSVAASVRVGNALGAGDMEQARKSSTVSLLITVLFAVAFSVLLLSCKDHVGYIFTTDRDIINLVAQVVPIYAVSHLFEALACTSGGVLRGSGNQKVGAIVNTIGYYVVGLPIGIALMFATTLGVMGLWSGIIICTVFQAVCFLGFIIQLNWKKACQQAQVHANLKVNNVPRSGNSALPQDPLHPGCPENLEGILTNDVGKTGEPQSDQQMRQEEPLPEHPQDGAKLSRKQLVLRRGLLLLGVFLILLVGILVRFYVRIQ

With CC1(C)SC(Nc2ccccc2O)=N[C@@H]1C(=O)O [Compound 1, (R)-2-(2-hydroxyphenylamino)-5,5-dimethyl-4,5-dihydrothiazole-4-carboxylic acid mono-hydrochloride] the cytotoxicity at 100 µM ([1]; 100 μM) was 31.3%, the cytotoxicity at 600 µM ([1]; 600 μM) was 33.6% and the stability in plasma [2] was “stable”. The hyperalgesia [3] was “protected from hyperalgesia; also recorded: did not experience hyperalgesia”, the stability in plasma ([4]; dog) was “stable” and the stability in plasma ([4]; human) was “stable”. The stability in plasma ([4]; rat) was “stable”, the “median t1-2” value ([5]; 10 mg/kg PO) was 1.4 h and the “epimerization (chiral column)” value ([5]; dog plasma) was “did not provide any evidence of epimerization”. It also gave a bioavailability ([5]; male, dog, plasma, oral, 10 mg/kg, read-out: mean oral bioavailability) of 72%, a Tmax ([5]; male, dog, plasma, 3 mg/kg IV) of roughly 5 min and a Cmax ([5]; male, dog, plasma, 10 mg/kg PO) of 12000 ng/mL. It also gave a Tmax ([5]; male, dog, plasma, 10 mg/kg PO) of roughly 60 min, a bioavailability ([5]; male, dog, plasma, read-out: oral bioavailability range) of 56 to 91% and an IC50 ([6]; Caco-2 cells, probe substrate digoxin (10 μM), bidirectional transport, 1-600 μM tested) greater than 600 µM. For the same molecule, the “transporter inhibition” value ([6]; P-gp) was “does not inhibit”, the concentration at 1 h ([7]; female, Sprague Dawley (CD IGS, Crl:CD(SD)), Compound 1 Concentration in rat plasma, Female, 100 mg/kg single PO, Average) was 60.1 µg/mL and the concentration at 2 h ([7]; female, Sprague Dawley (CD IGS, Crl:CD(SD)), Compound 1 Concentration in rat plasma, Female, 100 mg/kg single PO, individual animals) was 58200 ng/mL. It also gave a concentration at 4 h ([7]; female, Sprague Dawley (CD IGS, Crl:CD(SD)), Compound 1 Concentration in rat plasma, Female, 100 mg/kg single PO, 4 h post-dose, Average) of 22600 ng/mL, a concentration at 0.5 h [7, 15] of 34300 ng/mL and a concentration at 1 h [7, 15] of 53.9 µg/mL. It also gave a Cmax [7, 16] of 60000 ng/mL, a half-life [7, 16] of 240 min and a concentration at 0.5 h [7, 17] of 13800 ng/mL. It also gave a concentration at 1 h [7, 18] of 14.9 µg/mL, a concentration at 2 h [7, 18] of 14300 ng/mL and a concentration at 2 h [7, 17] of 16300 ng/mL. The concentration at 8 h ([7]; male, Sprague Dawley, Compound 1 Concentration in rat plasma, 100 mg/kg single PO, 8 h post-dose, individual animals) was 1610 ng/mL, the Cmax [7, 19] was 15000 ng/mL and the Tmax [7, 19] was 1 h. The half-life [7, 19] was 420 min, the “Compound 1 Concentration in rat plasma” value ([8]; Female, 0.5 h post-dose, mono-hydrochloride, 100 mg/kg) was 36.4 µg/mL and 44.7 µg/mL and 43.2 µg/mL and 45.4 µg/mL and the “Compound 1 Concentration in rat plasma” value ([8]; Female, 1 h post-dose, mono-hydrochloride, 100 mg/kg) was 50.1 µg/mL and 63.6 µg/mL and 63.2 µg/mL and 69.7 µg/mL. For the same molecule, the “Compound 1 Concentration in rat plasma” value ([8]; Female, 2 h post-dose, mono-hydrochloride, 100 mg/kg) was 63.1 µg/mL and 58.9 µg/mL and 60.1 µg/mL and 72.8 µg/mL, the “Compound 1 Concentration in rat plasma” value ([8]; Female, 4 h post-dose, mono-hydrochloride, 100 mg/kg) was 14.4 μg/mL (2×) and 31.5 μg/mL and 32.4 μg/mL and 20.4 μg/mL and the “Compound 1 Concentration in rat plasma” value ([8]; Female, 8 h post-dose, mono-hydrochloride, 100 mg/kg) was 1.78 µg/mL and 1.80 µg/mL and 4.14 µg/mL and 4.21 µg/mL and 2.23 µg/mL. For the same molecule, the “Compound 1 Concentration in rat plasma” value ([8]; Female, 24 h post-dose, mono-hydrochloride, 100 mg/kg) was 0.250 µg/mL and 0.240 µg/mL and 0.489 µg/mL and 0.482 µg/mL and 0.428 µg/mL, the “Compound 1 Concentration in rat plasma” value ([8]; Male, 0.5 h post-dose, mono-hydrochloride, 100 mg/kg) was 17.5 µg/mL and 14.0 µg/mL and 11.4 µg/mL and 10.8 µg/mL and the “Compound 1 Concentration in rat plasma” value ([8]; Male, 1 h post-dose, mono-hydrochloride, 100 mg/kg) was 14.3 µg/mL and 22.6 µg/mL and 14.8 µg/mL and 11.0 µg/mL and 11.8 µg/mL. The “Compound 1 Concentration in rat plasma” value ([8]; Male, 2 h post-dose, mono-hydrochloride, 100 mg/kg) was 15.7 µg/mL and 14.0 µg/mL and 14.9 µg/mL and 10.7 µg/mL, the “Compound 1 Concentration in rat plasma” value ([8]; Male, 4 h post-dose, mono-hydrochloride, 100 mg/kg) was 4.82 µg/mL and 13.9 µg/mL and 1.56 µg/mL and 6.65 µg/mL and 3.81 µg/mL and the “Compound 1 Concentration in rat plasma” value ([8]; Male, 8 h post-dose, mono-hydrochloride, 100 mg/kg) was 2.81 µg/mL and 1.57 µg/mL and 1.53 µg/mL and 3.05 µg/mL. The “Compound 1 Concentration in rat plasma” value ([8]; Male, 24 h post-dose, mono-hydrochloride, 100 mg/kg) was 0.157 μg/mL and BQL (3×) and 1.04 μg/mL, the concentration at 0.5 h [8, 20] was 40800 ng/mL and the concentration at 2 h [8, 20] was 62.6 µg/mL. The concentration at 8 h [8, 20] was 2830 ng/mL, the concentration at 24 h [8, 20] was 378 ng/mL and the concentration at 0.5 h [8, 21] was 13500 ng/mL. It also gave a concentration at 4 h [8, 21] of 6150 ng/mL, a concentration at 8 h [8, 21] of 2110 ng/mL and a concentration at 24 h [8, 21] of 599 ng/mL. The “epimerization in vivo (chiral methods)” value ([8]; rat plasma, mono-hydrochloride) was “no epimerization; also recorded: did not provide any evidence of epimerization”, the “removal of peroxynitrite in models of protein nitration” value [9] was “catalytically remove peroxynitrite” and the pKa ([10]; Acidic (first)) was 2.29 ± 0.02. For the same molecule, the pKa ([10]; Acidic (second)) was 10.24 ± 0.03, the pKa ([10]; Basic) was 6.97 ± 0.01 and the IC50 [11] was greater than 600 µM. It also gave an IC50 [12] greater than 600 µM, an IC50 [13] greater than 600 µM and an IC50 ([14]; HEK293 cells, probe [3H]-estradiol-17β-glucuronide (0.05 μM), 0.3-600 μM tested) greater than 600 µM. For the same molecule, the “transporter inhibition” value ([14]; OATP1B3) was “does not inhibit”.
